From PMC8308625, “Preclinical Studies in Anti-Trypanosomatidae Drug Development” (Pharmaceuticals, 2021)
Read-outs that look alike come from different tables or passages of the source. One block for each molecule: values may come before it.

Experiments:
T. cruzi = conditions: read-out: EC50 ± SD T. cruzi, cited from earlier work
[1] = system: L. infantum reference strain (MHOM/BR/2002/LPC-RPV); test: Growth inhibition of L. infantum reference strain promastigotes (resazurin); conditions: for Selectivity Index MΦ/Lin–Ref: EC50 mammalian cell line/EC50 L. infantum reference strain; for Selectivity Index MΦ/Reference: EC50 J774.1 macrophages versus L. infantum reference strain
T. brucei = test: Growth inhibition of T. brucei bloodstream form trypomastigotes (resazurin); type: cell-based, Trypanosoma brucei brucei; conditions: for EC50: read-out: EC50 ± SD T. brucei
Procedure: Compounds were dissolved in dimethylsulfoxide (DMSO).

L. braziliensis = conditions: read-out: EC50 ± SD L. brazils, cited from earlier work
[2] = system: L. infantum veterinary isolate (MCAN_UY_2015_gPL8); test: Growth inhibition of L. infantum veterinary isolate promastigotes (resazurin); conditions: for Selectivity Index MΦ/Veterinary: EC50 J774.1 macrophages versus L. infantum veterinary isolate; for EC50: Leishmania infantum
L. amazonensis = test: Growth inhibition of L. amazonensis promastigotes (resazurin); conditions: for Selectivity Index MΦ/L. amaz: EC50 mammalian cell line/EC50 L. amazonensis
[3] = system: J774.1 murine macrophages; test: Nonspecific cytotoxicity in murine macrophages (MTT); conditions: Mus musculus, J774.1, read-out: EC50 ± SD MΦ
[4] = mice, 796 150 mg/kg oral, Cyclophosphamide intraperitoneal positive control
T. b. brucei = conditions: ref Veale and Hoppe, 2018; read-out: EC50 T. b. brucei; cited from earlier work
[5] = Nonspecific cytotoxicity in murine macrophages (MTT); conditions: mouse, J774.1 murine macrophages
[6] = set-up: method as in data provided by the DNDi program, non-published; conditions: ref data provided by the DNDi program, non-published; cited from earlier work
[7] = Table 3, thiazolidene hydrazines, ref [13],[16],[19],[23],[25]
[8] = read-out: EC50 ± SD Lin–Ref, Table 3, thiazolidene hydrazines, L. infantum reference strain
[9] = Table 4, curcuminoids, ref [14]
[10] = read-out: EC50 ± SD Lin–Ref, Table 4, curcuminoids, L. infantum reference strain
[11] = Leishmania infantum, read-out: EC50 ± SD Lin–Ref
[12] = read-out: EC50 L. infantum Veterinary
[13] = Leishmania infantum, read-out: EC50 L. infantum Reference

SMILES: C=CCNC(=S)NN=CC(C)=Cc1ccco1 [Compound 909]
EC50 (T. cruzi; [7]): 6 ± 1 µM | EC50 [1, 8]: 10 µM | EC50 (T. brucei; Table 3, thiazolidene hydrazines): 19 ± 1 µM

EC50 [1, 10]: < 0.3 µM | EC50 (T. brucei; Table 4, curcuminoids): 15 ± 2 µM
SMILES: O=C1C(=CC=Cc2cccs2)CCC1=CC=Cc1cccs1 [Compound 1018]
EC50 (T. cruzi; [9]): 0.04 ± 0.01 µM | EC50 (L. braziliensis; [9]): 11 ± 3 µM

EC50 (L. amazonensis; read-out: EC50 ± SD L. amaz, Table 4, curcuminoids): 18 ± 4 µM | EC50 [1, 10]: < 0.3 µM
SMILES: O=C1C(=CC=Cc2ccco2)CCC1=CC=Cc1ccco1 [Compound 1223]
growth inhibitory / trypanosomicidal effect on the L. infantum canine-derived isolate [2]: no trypanosomicidal effect | EC50 (T. cruzi; [9]): 5 ± 2 µM | EC50 (L. braziliensis; [9]): 16 ± 4 µM | trypanosomicidal effect on T. brucei (T. brucei): no trypanosomicidal effect

EC50 [1, 10]: < 0.3 µM | EC50 (T. brucei; Table 4, curcuminoids): 16 ± 3 µM
SMILES: O=C1C(=CC=Cc2cccs2)CCCC1=CC=Cc1cccs1 [Compound 1245]
EC50 (T. cruzi; [9]): 0.6 ± 0.2 µM | EC50 (L. braziliensis; [9]): 16 ± 1 µM

SMILES: O=C(NN=CC=Cc1ccco1)c1cnn(-c2ccccc2)c1 [Compound 1366]
EC50 (T. cruzi; [7]): 12 ± 2 µM

SMILES: Cc1ccc(S(=O)(=O)NN=CC=Cc2ccco2)cc1 [Compound 1369]
EC50 (T. cruzi; [7]): 15 ± 5 µM | EC50 [1, 8]: 8 ± 2 µM

EC50 (T. brucei; Table 4, curcuminoids): 0.7 ± 0.1 µM
SMILES: O=C(C=Cc1ccsc1)C=Cc1ccsc1 [Compound 1387]
EC50 (T. cruzi; [9]): 16 ± 2 µM

EC50 (T. brucei; Table 4, curcuminoids): 16 µM
SMILES: O=C(C=CC=Cc1ccco1)C=CC=Cc1cccs1 [Compound 1414]
EC50 (T. cruzi; [9]): 12 ± 1 µM

SMILES: COc1cc(/C=C/C(=O)CC(=O)/C=C/c2ccc(O)c(OC)c2)ccc1O [Curcumin, reference compound]
EC50 (T. cruzi; [9]): 6 ± 1 µM | Selectivity Index MΦ/L. amaz (L. amazonensis): 2 | EC50 (L. braziliensis; [9]): 6 ± 1 µM | Selectivity Index MΦ/Lin–Ref [1]: 2 | EC50 [1, 11]: 5 ± 1 µM | EC50 [3]: 10 ± 2 µM | EC50 (T. brucei; Trypanosoma brucei, Table 4, curcuminoids): 8 ± 1 µM

SMILES: O=P1(N(CCCl)CCCl)NCCCO1 (centres unmarked) [Cyclophosphamide, reference compound]
Media Mn/Mouse ± SD [4]: 36 ± 2 | Number EPMn (total polychromatic micronucleated erythrocytes in the 5 assays) ([4]; 5000 EPC observed): 180

SMILES: CS(=O)(=O)c1ccc(C(=O)N(C[C@H]2CCCO2)c2nc3ccccc3s2)cc1[N+](=O)[O-] [MMV688761, N-(1,3-Benzothiazol-2-yl)-4-methylsulfonyl-3-nitro-N-[[(2R)-oxolan-2-yl]methyl]benzamide]
EC50 (T. b. brucei): 11 µM | Selectivity Index MΦ/Veterinary [2]: >13 | EC50 [2, 12]: 3.9 ± 0.3 µM | Selectivity Index MΦ/Reference [1]: >10 | EC50 [1, 13]: 4.9 ± 0.1 µM | EC50 at 48 h [5]: > 50 µM

SMILES: CNc1nnc(Sc2cnn(-c3ccccc3)c(=O)c2Cl)s1 [MMV688763, 4-Chloro-5-{[5-(methylamino)-1,3,4-thiadiazol-2-yl]sulfanyl}-2-phenyl-2,3-dihydropyridazin-3-one]
Selectivity Index MΦ/Veterinary [2]: >56 | EC50 [2, 12]: 0.9 ± 0.1 µM | Selectivity Index MΦ/Reference [1]: >24 | EC50 [1, 13]: 2.1 ± 0.2 µM | pharmacokinetics [6]: pharmacokinetic problems | EC50 at 48 h [5]: > 50 µM

EC50 ([2]; read-out: EC50 ± SD Lin–Vet): 10 ± 2 µM | EC50 [1, 11]: 6 ± 1 µM
SMILES: CC1CS(=O)(=O)CCN1/N=C/c1ccc([N+](=O)[O-])o1 (centres unmarked) [Nifurtimox, reference compound]
Selectivity Index MΦ/Lin–Vet ([2]; EC50 mammalian cell line/EC50 L. infantum veterinary isolate): 20 | EC50 (T. cruzi; [7]): 7 ± 2 µM | Selectivity Index MΦ/L. amaz (L. amazonensis): 33 | EC50 (L. braziliensis; [7]): 6 ± 2 µM | Selectivity Index MΦ/Lin–Ref [1]: 33 | EC50 [3]: 200 ± 9 µM
